Data published in patent publication US9708336B2, “Metallo-beta-lactamase inhibitors” (priority 2014, dated 2017).
Read-outs that look alike come from different tables or passages of the source.

Columns and labels:
VIM-1 = VIM-1 (Pseudomonas aeruginosa (strain ATCC 15692 / DSM 22644 / CIP 104116 / JCM 14847 / LMG 12228 / 1C / PRS 101 / PAO1), UniProt A0A0F7KYQ8); assay: Enzyme activity: determination of IC50, fluorescence assay with CCF2-FA substrate (VIM-1); format: biochemical
[1] = system: Klebsiella pneumoniae expressing VIM-1 (IHMA599644); assay: Antibiotic potentiation activity: synergistic concentration (MITC95) with imipenem, OD600 growth; format: cell-based; settings: for Klebsiella pneumoniae expressing VIM-1 (IHMA 599644) MITC95: concentration giving 95% inhibition of bacterial growth
Experimental: (§1) Antibiotic Potentiation Activity: Determination of Synergistic Concentration
(§2) The bacterial strains tested included the clinical strains Escherichia coli expressing NDM-1 (CLB30005, CLB30016), Serratia marcescens expressing IMP-1 (CL5741), and Klebsiella pneumoniae expressing VIM-1 (IHMA599644) Inhibitor activity was measured in the presence and absence of imipenem in a 384-well microplate.
(§3) The clinical strains CLB30016, CL5741 and IHMA599644 were grown on trypticase soy agar containing 5% sheep's blood. The clinical strain CLB30005 was grown on Mueller Hinton broth agar containing 8 ug/ml imipenem. The bacteria on agar plates were incubated at 35° C. with humidity overnight. The following day, individual colonies from each clinical strain were picked and resuspended in 5 ml saline to attain an OD600 of 0.14, 0.11, 0.15 and 0.13, for CLB30005, CLB30016, CL5741 and IHMA599644, respectively. These were further diluted 1:100 into 1.1×CAMHB and used to inoculate the test wells as described below.
(§4) Imipenem in 10 mM 3-(N-morpholino)propanesulfonic acid (MOPS, pH 7) was stored in single use aliquots at −80° C. […] On the day of the assay, 4 μl of antibiotic was added to 45 ul of bacteria followed by 1 μl of test compound and mixed by pipetting and with an orbital shaker. The concentration of antibiotic used in the assay was 4 μg/ml, or optionally 1 μg/ml. Microplates were covered and incubated at 35° C. for 22 hours to 24 hours. At the end of the incubation, absorbance was determined using a spectrophotometer.

[2] = system: Serratia marcescens expressing IMP-1 (CL5741); assay: as above; format: cell-based; settings: for Serratia marcescens expressing IMP-1 (CL5741) MITC95: concentration giving 95% inhibition of bacterial growth
Experimental: as §1, §2, §3, §4

[3] = system: Escherichia coli expressing NDM-1 (CLB30016); assay: as above; format: cell-based; settings: for Escherichia coli expressing NDM-1 (CLB 30016) MITC95: concentration giving 95% inhibition of bacterial growth
Experimental: as §1, §2, §3, §4

IMP-1 = IMP-1 (Serratia marcescens, UniProt P52699); assay: biochemical; format: biochemical; settings: read-out: IMP-1 IC50
Experimental: Enzyme Activity: Determination of IC50
The Class B enzyme activities were measured in the presence of the test inhibitor in a fluorescence assay against a commercially available substrate consisting of a cephalosporin core linking 7-hydroxycoumarin to fluorescein (CCF2-FA). The enzyme (NDM-1, IMP-1 or VIM-1) and the substrate were diluted in 100 mM KH2PO4 buffer (pH 7) containing 0.005% Tween-20 and 10 μM ZnSO4. […] The test inhibitor was dissolved in dimethylsulfoxide and diluted 1:50 in the assay, resulting in a final concentration range of 20 uM to 0.00063 uM. In a 384-well microplate, the test inhibitor was incubated with the metallo-β-lactamase enzyme and the substrate for 2 hours at 25° C. Fluorescence at 460 nm following excitation at 405 nm was measured. The IC50 value was determined from semi-logarithmic plots of enzyme inhibition versus inhibitor concentration, with a curve generated using a 4-parameter fit.

NDM-1 = NDM-1 (Klebsiella pneumoniae, UniProt C7C422); assay: biochemical; format: biochemical; settings: read-out: NDM-1 IC50
[4] = VIM-1 enzyme, CCF2-FA substrate, read-out: VIM-1 IC50
[5] = Klebsiella pneumoniae IHMA599644 (VIM-1), 95% growth inhibition
[6] = Serratia marcescens CL5741 (IMP-1), 95% growth inhibition
[7] = (CLB30016, NDM-1), 95% growth inhibition
[8] = IMP-1 enzyme, CCF2-FA substrate
[9] = NDM-1 enzyme, CCF2-FA substrate
[10] = fluorescence assay with CCF2-FA substrate, read-out: VIM-1 IC50
[11] = fluorescence assay with CCF2-FA substrate
[12] = VIM-1 IC50, fluorescence assay with CCF2-FA substrate
[13] = IHMA599644 (VIM-1), 95% inhibition of bacterial growth
[14] = CL5741 (IMP-1), 95% inhibition of bacterial growth
[15] = CLB30016 (NDM-1), 95% inhibition of bacterial growth
[16] = VIM-1 enzyme, CCF2-FA fluorescence assay, read-out: VIM-1 IC50
[17] = Klebsiella pneumoniae expressing VIM-1 (IHMA599644), 95% growth inhibition
[18] = Serratia marcescens expressing IMP-1 (CL5741), 95% growth inhibition
[19] = Escherichia coli expressing NDM-1 (CLB30016), 95% growth inhibition
[20] = IMP-1 enzyme, CCF2-FA fluorescence assay
[21] = NDM-1 enzyme, CCF2-FA fluorescence assay

Chain of IMP-1 (P52699 whole entry, looked up): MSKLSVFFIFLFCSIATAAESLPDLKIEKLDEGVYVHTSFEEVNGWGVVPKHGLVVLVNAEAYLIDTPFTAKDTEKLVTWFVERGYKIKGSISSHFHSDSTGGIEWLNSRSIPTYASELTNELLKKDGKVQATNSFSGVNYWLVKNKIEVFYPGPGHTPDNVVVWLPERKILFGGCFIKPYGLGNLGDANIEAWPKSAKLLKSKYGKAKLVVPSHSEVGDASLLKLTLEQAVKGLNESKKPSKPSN
Chain of NDM-1 (C7C422 whole entry, looked up, species assumed): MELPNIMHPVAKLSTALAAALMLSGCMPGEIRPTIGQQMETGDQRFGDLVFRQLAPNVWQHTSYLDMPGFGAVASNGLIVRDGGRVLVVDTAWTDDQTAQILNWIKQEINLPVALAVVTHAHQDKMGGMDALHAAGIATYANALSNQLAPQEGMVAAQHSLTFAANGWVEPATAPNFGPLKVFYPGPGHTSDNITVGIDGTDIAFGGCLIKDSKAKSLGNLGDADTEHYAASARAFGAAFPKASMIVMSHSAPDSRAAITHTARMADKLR

Structure (SMILES) | IC50 (VIM-1; [4]) | Klebsiella pneumoniae MITC95 [1, 5] | Serratia marcescens MITC95 [2, 6] | Escherichia coli MITC95 [3, 7] | IC50 (IMP-1; [8]) | IC50 (NDM-1; [9]) | IC50 (IMP-1; [11]) | IC50 (NDM-1; [11]) | other results
NS(=O)(=O)c1cccc(-c2cnc3ncccn23)c1-c1nnn[nH]1 [Example 647, 3-imidazo[1,2-a]pyrimidin-3-yl-2-(1H-tetrazol-5-yl)benzenesulfonamide] | 0.0839 µM | 6.25 µM | 18.75 µM | 0.25 µM | 0.618 µM | 0.0141 µM | – | – | –
NS(=O)(=O)c1c(C(F)(F)F)ccc([C@H]2CC[C@@H](O)CC2)c1-c1nnn[nH]1 [Example 495] | 0.0221 µM | 25 µM | 0.5859 µM | 2.344 µM | 0.00426 µM | 0.00187 µM | – | – | –
Cc1cccn2c(-c3cccc(S(N)(=O)=O)c3-c3nnn[nH]3)cnc12 [Example 139, 3-(8-methylimidazo[1,2-a]pyridin-3-yl)-2-(1H-tetrazol-5-yl)benzenesulfonamide] | – | – | – | – | – | – | 0.0984 µM | 0.000637 µM | IC50 (VIM-1; [10]): 0.00578 µM; Klebsiella pneumoniae expressing VIM-1 (IHMA 599644) MITC95 [1]: 12.5 µM; Serratia marcescens expressing IMP-1 (CL5741) MITC95 [2]: 6.25 µM; Escherichia coli expressing NDM-1 (CLB 30016) MITC95 [3]: 0.1953 µM
NS(=O)(=O)c1c(C(F)(F)F)ccc([C@H]2CC[C@H](NC3CC4(CCNCC4)C3)CC2)c1-c1nnn[nH]1 [Example 685, 3-[4-(7-azaspiro[3.5]non-2-ylamino)cyclohexyl]-2-(1H-tetrazol-5-yl)-6-(trifluoromethyl)benzene sulfonamide] | 0.00488 µM | 25 µM | 6.25 µM | 1.563 µM | 0.0758 µM | 0.03 µM | – | – | –
NS(=O)(=O)c1c(C(F)(F)F)ccc(-c2cccc(N3CCC(O)CC3)c2)c1-c1nnn[nH]1 [Example 741, 3′-(4-hydroxypiperidin-1-yl)-2-(1H-tetrazol-5-yl)-4-(trifluoromethyl)biphenyl-3-sulfonamide] | 0.00274 µM | >200 µM | 25 µM | 25 µM | 0.00612 µM | 0.00465 µM | – | – | –
Nc1[nH]nc2ccc(-c3cccc(S(N)(=O)=O)c3-c3nnn[nH]3)cc12 [Example 132, 3-(3-amino-2H-indazol-5-yl)-2-(1H-tetrazol-5-yl)benzenesulfonamide] | – | – | – | – | – | – | 0.755 µM | 0.00273 µM | IC50 (VIM-1; [10]): 0.0267 µM; Klebsiella pneumoniae expressing VIM-1 (IHMA 599644) MITC95 [1]: 6.25 µM; Serratia marcescens expressing IMP-1 (CL5741) MITC95 [2]: 12.5 µM; Escherichia coli expressing NDM-1 (CLB 30016) MITC95 [3]: 1.172 µM
NCCS(=O)(=O)c1ccc(-c2ccc(C(F)(F)F)c(S(N)(=O)=O)c2-c2nnn[nH]2)cc1 [Example 736, 4′-[(2-aminoethyl)sulfonyl]-2-(1H-tetrazol-5-yl)-4-(trifluoromethyl)biphenyl-3-sulfonamide] | 0.0016 µM | 6.25 µM | 6.25 µM | 6.25 µM | 0.00323 µM | 0.00323 µM | – | – | –
Nc1nc2c(-c3ccc(C(F)(F)F)c(S(N)(=O)=O)c3-c3nnn[nH]3)cccc2s1 [Example 561, 3-(2-aminobenzo[d]thiazol-4-yl)-2-(1H-tetrazol-5-yl)-6-(trifluoromethyl)benzenesulfonamide] | 0.000434 µM | 2.563 µM | 0.09375 µM | 0.668 µM | 0.000993 µM | 0.000153 µM | – | – | –
NC1CN(C2CCN(c3ccc(C(F)(F)F)c(S(N)(=O)=O)c3-c3nnn[nH]3)CC2)C1 [Example 758, 3-[4-(3-aminoazetidin-1-yl)piperidin-1-yl]-2-(1H-tetrazol-5-yl)-6-(trifluoromethyl) benzenesulfonamide] | – | – | – | – | – | – | 0.0458 µM | 0.0296 µM | IC50 (VIM-1; [12]): 0.00244 µM; Klebsiella pneumoniae MITC95 [1, 13]: 6.25 µM; Serratia marcescens MITC95 [2, 14]: 6.25 µM; Escherichia coli MITC95 [3, 15]: 6.25 µM
NCCCCN1CCN(c2ccc(C(F)(F)F)c(S(N)(=O)=O)c2-c2nnn[nH]2)CC1 [Example 765, 3-[4-(4-aminobutyl)piperazin-1-yl]-2-(1H-tetrazol-5-yl)-6-(trifluoromethyl) benzenesulfonamide] | – | – | – | – | – | – | 0.131 µM | 0.0933 µM | IC50 (VIM-1; [10]): 0.125 µM; Klebsiella pneumoniae MITC95 [1, 13]: 25 µM; Serratia marcescens MITC95 [2, 14]: 3.125 µM; Escherichia coli MITC95 [3, 15]: 6.25 µM
NCCN[C@H]1CC[C@@H](c2ccc(C(F)(F)F)c(S(N)(=O)=O)c2-c2nnn[nH]2)CC1 [Example 828, 3-((1s,4s)-4-((2-aminoethyl)amino)cyclohexyl)-2-(1H-tetrazol-5-yl)-6-(trifluoromethyl)benzenesulfonamide] | – | – | – | – | – | – | 0.0729 µM | 0.00829 µM | IC50 (VIM-1; [12]): 0.0733 µM; Klebsiella pneumoniae MITC95 [1, 13]: 6.25 µM; Serratia marcescens MITC95 [2, 14]: 1.563 µM; Escherichia coli MITC95 [3, 15]: 0.7813 µM
NS(=O)(=O)c1c(C(F)(F)F)ccc(N2CC3C(CO)C3C2)c1-c1nnn[nH]1 (stereo not drawn) [Example 658, 3-[6-(hydroxymethyl)-3-azabicyclo[3.1.0]hex-3-yl]-2-(1H-tetrazol-5-yl)-6-(trifluoromethyl)benzenesulfonamide] | 0.00526 µM | 12.5 µM | 0.7813 µM | 2.344 µM | 0.007 µM | 0.00512 µM | – | – | –
NS(=O)(=O)c1cccc(-c2ccc(CN3CCC(O)CC3)cc2)c1-c1nnn[nH]1 [Example 394, 4′-[(4-hydroxypiperidin-1-yl)methyl]-2-(1H-tetrazol-5-yl)biphenyl-3-sulfonamide] | – | – | – | – | – | – | – | – | IC50 (VIM-1; [16]): 0.658 µM; Klebsiella pneumoniae MITC95 [1, 17]: >200 µM; Serratia marcescens MITC95 [2, 18]: 3.125 µM; Escherichia coli MITC95 [3, 19]: 2.344 µM; IC50 (IMP-1; [20]): 0.195 µM; IC50 (NDM-1; [21]): 0.0113 µM
NS(=O)(=O)c1cccc(-c2ccc(N3CC(CN4CCCC4)C3)nc2)c1-c1nnn[nH]1 [Example 630, 3-[6-[3-(pyrrolidin-1-ylmethyl)azetidin-1-yl]-3-pyridyl]-2-(1H-tetrazol-5-yl)benzenesulfonamide] | 0.635 µM | 50 µM | 12.5 µM | 1.172 µM | 0.388 µM | 0.0323 µM | – | – | –
Cc1nnc2ccc(-c3cccc(S(N)(=O)=O)c3-c3nnn[nH]3)cn12 [Example 113, 3-(3-methyl-[1,2,4]triazolo[4,3-a]pyridin-6-yl)-2-(1H-tetrazol-5-yl)benzenesulfonamide] | – | – | – | – | – | – | 14.8 µM | 0.0154 µM | IC50 (VIM-1; [10]): 0.313 µM; Klebsiella pneumoniae expressing VIM-1 (IHMA 599644) MITC95 [1]: 50 µM; Serratia marcescens expressing IMP-1 (CL5741) MITC95 [2]: 200 µM; Escherichia coli expressing NDM-1 (CLB 30016) MITC95 [3]: 3.125 µM
NS(=O)(=O)c1c(C(F)(F)F)ccc(CC[C@H]2CC[C@H](N)CC2)c1-c1nn[nH]n1 [Example 431, 3-(2-((1r,4s)-4-aminocyclohexyl)ethyl)-2-(2H-tetrazol-5-yl)-6-(trifluoromethyl)benzenesulfonamide] | – | – | – | – | – | – | – | – | IC50 (VIM-1; [16]): 0.000432 µM; Klebsiella pneumoniae MITC95 [1, 17]: 1.531 µM; Serratia marcescens MITC95 [2, 18]: 0.125 µM; Escherichia coli MITC95 [3, 19]: 2.563 µM; IC50 (IMP-1; [20]): 0.00375 µM; IC50 (NDM-1; [21]): 0.0179 µM
NC1CCN(c2ccc(C(F)(F)F)c(S(N)(=O)=O)c2-c2nnn[nH]2)CC1 [Example 778, 3-(4-amino-1-piperidyl)-2-(1H-tetrazol-5-yl)-6-(trifluoromethyl) benzenesulfonamide] | – | – | – | – | – | – | 0.16 µM | 0.147 µM | IC50 (VIM-1; [10]): 0.000688 µM; Klebsiella pneumoniae MITC95 [1, 13]: 1.172 µM; Serratia marcescens MITC95 [2, 14]: 1.563 µM; Escherichia coli MITC95 [3, 15]: 3.125 µM
